A short description of assay [1]: Cytotoxicity against human A375P cells at 100 uM after 24 hrs by MTT assay. The class given is functional, cell-based.
Assay [2] is described as follows: Cytotoxicity against human A375P cells after 24 hrs by MTT assay. Format: functional, cell-based.
Assay [3] deals with Serine/threonine-protein kinase B-raf (Homo sapiens, UniProt P15056, V600E). Nature of the assay: Inhibition of b-Raf V600E mutant.
Assay [4] concerns the target RAF proto-oncogene serine/threonine-protein kinase (Homo sapiens, UniProt P04049). Nature of the assay: Inhibition of c-Raf.
Another assay deals with HS27. Nature of the assay: Cytotoxicity against human HS27 cells after 24 hrs by MTT assay. The class given is cell-based. The settings on record: HS27, 24 h. In general terms: Tetrazolium assays rely on reduction of a dye to a coloured formazan, in cell work by metabolically active cells.

Here are results for 19 compounds from ChEMBL document CHEMBL1255536, “Synthesis of aminoquinazoline derivatives and their antiproliferative activities against melanoma cell line” (Bioorg Med Chem Lett, 2010).

Chain of Serine/threonine-protein kinase B-raf (P15056 2-766 V600E limits assumed): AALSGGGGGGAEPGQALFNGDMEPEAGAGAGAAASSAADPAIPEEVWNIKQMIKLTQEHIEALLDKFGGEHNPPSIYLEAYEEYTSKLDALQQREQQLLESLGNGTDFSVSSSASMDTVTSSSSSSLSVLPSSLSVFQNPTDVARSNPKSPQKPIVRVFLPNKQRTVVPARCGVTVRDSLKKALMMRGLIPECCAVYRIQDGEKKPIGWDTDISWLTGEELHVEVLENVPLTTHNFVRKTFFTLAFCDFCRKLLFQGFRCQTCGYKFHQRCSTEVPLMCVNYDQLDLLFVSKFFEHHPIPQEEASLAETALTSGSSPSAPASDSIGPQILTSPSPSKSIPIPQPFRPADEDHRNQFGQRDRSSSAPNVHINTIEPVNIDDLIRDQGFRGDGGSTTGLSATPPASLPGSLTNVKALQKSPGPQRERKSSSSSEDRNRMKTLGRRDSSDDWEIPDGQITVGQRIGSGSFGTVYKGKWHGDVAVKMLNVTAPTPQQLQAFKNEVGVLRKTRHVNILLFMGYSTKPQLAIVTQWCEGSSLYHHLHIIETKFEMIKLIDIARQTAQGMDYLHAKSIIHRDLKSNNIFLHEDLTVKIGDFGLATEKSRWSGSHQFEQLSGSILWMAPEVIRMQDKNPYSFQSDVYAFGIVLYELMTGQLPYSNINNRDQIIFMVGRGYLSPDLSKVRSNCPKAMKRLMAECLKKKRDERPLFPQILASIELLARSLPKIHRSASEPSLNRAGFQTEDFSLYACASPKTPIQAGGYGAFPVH
Chain of RAF proto-oncogene serine/threonine-protein kinase (P04049 whole entry): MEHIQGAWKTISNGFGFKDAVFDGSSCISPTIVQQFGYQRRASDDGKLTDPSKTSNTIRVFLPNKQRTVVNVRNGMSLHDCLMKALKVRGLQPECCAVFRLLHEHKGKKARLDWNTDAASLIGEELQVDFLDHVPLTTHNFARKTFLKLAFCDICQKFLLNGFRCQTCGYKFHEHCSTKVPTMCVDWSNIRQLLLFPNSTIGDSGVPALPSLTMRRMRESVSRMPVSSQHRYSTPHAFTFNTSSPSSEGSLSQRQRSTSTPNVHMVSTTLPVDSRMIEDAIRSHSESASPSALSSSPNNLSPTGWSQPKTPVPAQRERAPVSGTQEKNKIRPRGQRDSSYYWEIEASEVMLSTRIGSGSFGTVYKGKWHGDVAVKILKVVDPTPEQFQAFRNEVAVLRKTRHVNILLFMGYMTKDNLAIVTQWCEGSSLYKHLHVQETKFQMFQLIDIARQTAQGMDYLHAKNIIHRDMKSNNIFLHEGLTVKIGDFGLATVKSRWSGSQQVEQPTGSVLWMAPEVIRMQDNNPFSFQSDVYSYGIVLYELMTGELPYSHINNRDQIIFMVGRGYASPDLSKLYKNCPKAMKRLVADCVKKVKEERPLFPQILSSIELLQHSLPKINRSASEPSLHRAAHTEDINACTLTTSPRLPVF

For the compound `CNc1ncnc2c(CNc3cc(NC(=O)c4ccc(N)c(C(F)(F)F)c4)ccc3C)cccc12`, the IC50 result in assay [1] was “Not Active”. In turn, `CNc1ncnc2c(CNc3cc(NC(=O)c4ccnnc4)ccc3C)cccc12` yielded an IC50 in assay [2] of 61700 nM. As for `CNc1ncnc2c(CNc3cc(NC(=O)c4ccc(-c5cc(C(F)(F)F)ccc5Cl)o4)ccc3C)cccc12`, the IC50 in assay [2] was determined as 14900 nM. Against the preceding compound, the IC50 is about 4.1-fold lower. Regarding `CNc1ncnc2c(CNc3cc(NC(=O)c4ccc(Cl)c(-n5cnc(C)c5)c4)ccc3C)cccc12`, the IC50 entry in assay [1] is on record as “Not Active”. For `CNc1ncnc2c(CNc3cc(NC(=O)c4cc(C(F)(F)F)cc(C(F)(F)F)c4)ccc3C)cccc12`, the IC50 in assay [2] came to 769 nM.

With `CNc1ncnc2c(CNc3cc(NC(=O)c4ccncc4Cl)ccc3C)cccc12`, the IC50 result in assay [1] is on record as “Not Active”. `CNc1ncnc2c(CNc3cc(NC(=O)c4cscn4)ccc3C)cccc12` came in with an IC50 in assay [2] of 1900 nM. This lies in the single-digit micromolar range. Take `CNc1ncnc2c(CNc3cc(NC(=O)c4ccc(OC)c5ccc(OC)cc45)ccc3C)cccc12`: the IC50 result in assay [1] is given as “Not Active”. Consider `CNc1ncnc2c(CNc3cc(NC(=O)c4cc(=O)c5ccccc5o4)ccc3C)cccc12`, for which the IC50 in assay [3] turned out to be 19500 nM; in assay [4], 765 nM; in assay [2] it was 6 nM; in the assay on HS27, 230 nM. Take `CNc1ncnc2c(CNc3cc(NC(=O)c4cc(C)on4)ccc3C)cccc12`: the IC50 in assay [2] came to 1200 nM. Turning to `CNc1ncnc2c(CNc3cc(NC(=O)c4cc(C)oc4C)ccc3C)cccc12`, the IC50 entry in assay [1] is given as “Not Active”. For the compound `CNc1ncnc2c(CNc3cc(NC(=O)c4cc5ccccc5s4)ccc3C)cccc12`, the IC50 result in assay [1] was “Not Active”. In assay [2], `CNc1ncnc2c(CNc3cc(NC(=O)c4ccc(Br)s4)ccc3C)cccc12` displayed an IC50 of 10500 nM. For the compound `CNc1ncnc2c(CNc3cc(NC(=O)c4cccc(C(F)(F)F)c4)ccc3C)cccc12`, the IC50 in assay [2] was found to be 433 nM. For `CNc1ncnc2c(CNc3cc(NC(=O)c4ccc(-c5ccc(OC)cc5)o4)ccc3C)cccc12`, the IC50 result in assay [1] is given as “Not Active”. On the same count and under the same terms, the entry for `CNc1ncnc2c(CNc3cc(NC(=O)c4cnccn4)ccc3C)cccc12` is “Not Active”. In turn, `CNc1ncnc2c(CNc3cc(NC(=O)c4ccc(Cl)c(C(F)(F)F)c4)ccc3C)cccc12` returned an IC50 in assay [2] of 9700 nM. Consider `CNC(=O)c1cc(Oc2ccc(NC(=O)Nc3ccc(Cl)c(C(F)(F)F)c3)cc2)ccn1` [SORAFENIB], for which half-maximal inhibition in assay [2] (IC50) required 5580 nM.

As for `CNc1ncnc2c(CNc3cc(NC(=O)c4ccc5c(c4)OCCO5)ccc3C)cccc12`, the figures for the IC50 (in assay [2]; in the assay on HS27) were 137 nM and 1200 nM, respectively.

Usually IC50 stands for the concentration that gives 50% inhibition. Low readings indicate greater potency in that assay, high ones weaker potency in that assay.
